{"source": "patent US20250163484A1", "about": "“Methods for Incorporating Azido Groups in Bacterial Capsular Polysaccharides” (PFIZER INC., priority 2022, published 2025)", "key": {"[1]": {"test_system": "S. pneumoniae T14 capsule polysaccharide", "format": "cell-based, Streptococcus pneumoniae serotype 14", "method": "FIGS. 1A-1D. Screen for azido sugar incorporation into S. pneumoniae T14 capsule polysaccharide. […] Bacteria were grown until the ΔOD600≥0 for >30 minutes, then lysed with 0.1% NLS for 30 minutes. Growth was measured offline using a spectrophotometer blanked with PBS at 600 nm. (FIG. 1A) azido incorporation into polysaccharide was then quantified via fluorescent labeling (FL) with normalization to refractive index (RI). MaxOD and End Of Fermentation time (EOF) are provided in (FIG. 1B) and (FIG. 1C), respectively. Polysaccharide was extracted using EtOH and CaCl2 and analyzed via SEC-RI for (FIG. 1D) polysaccharide titer. n=1-4, error bars=+/−StDev.\nA SEC fluorescence and Refractive index assay (SEC-FL/RI) was used for azide measurement to confirm the incorporation of azide modification.\nClick-It Cell Reaction Buffer kit and Alexa Fluor 488 Alkyne were purchased from Invitrogen.\nThe initial procedure when running the SEC-FL/RI was to prepare the sample to a target concentration of 0.01 mg/m by mixing a pre-diluted polysaccharide to the final target concentration with the Click Reaction mixture. The reaction mixture consisted of 2.67 mM CuSO4, 2.67 mg/mL cell additive reagent, and 20 uM Alexa Fluor Alkyne. This was mixed with the sample at a 3:1 ratio of reaction mixture to sample and incubated in the absence of light. Reactions were transferred to HPLC vials and ran on the SEC-FL/RI HPLC setup. The RI detector (RID) allowed for detection of the polysaccharide while the Fluorescence Detector (FLD) was used to determine the level of fluor incorporated into the polysaccharide sample. The ratio of the two peak areas gave a measurement for the amount of azide incorporated to the polysaccharide.\nLater, in addition to the incubation of the sample for thirty minutes, a buffer exchange step was added that washed out the unreacted fluor as well as the reaction matrix reagents in order to improve the baselines of the FLD and RID during the HPLC run. This added greater resolution of the peak associated with the azide functionalized polysaccharide. The assay was useful for relative quantitation of azide incorporation into the polysaccharide but could not quantify an exact numerical concentration. To improve this aspect work was undertaken to use a polysaccharide with known levels of azido functionalization to make a standard curve that varied the % Azido while keeping the polysaccharide mass the same. This was done by mixing the known azido modified poly (polysaccharide) with specific amounts of native (unmodified) polysaccharide. A strong linear fit for the generated standard curve was seen.\nThe values for percent azide were able to be converted to a μM azide per mM polysaccharide by converting from % azide using the constant polysaccharide concentration."}, "[2]": {"test_system": "S. pneumoniae T14", "assay": "Growth of S. pneumoniae T14 in fermentation with azido sugar (OD600)", "format": "cell-based, Streptococcus pneumoniae serotype 14", "details": "production media + 2AzGlc (10 mM)", "method": "FIGS. 1A-1D. Screen for azido sugar incorporation into S. pneumoniae T14 capsule polysaccharide. Vessels (100 mL working volume) were inoculated with a 10-fold dilution of bacteria grown in seed expansion media supplemented with Galactose (30 g/L) (OD600=1.0-1.2) and incubated at 36° C. and 173 rpm with an air overlay of 1.5 SLPH. Media (production medium supplemented with Glucose (30 g/L) (black bars) or production medium supplemented with Galactose (30 g/L) (grey bars)) pH was controlled at 7.0. Bacteria were grown until the ΔOD600≥0 for >30 minutes, then lysed with 0.1% NLS for 30 minutes. Growth was measured offline using a spectrophotometer blanked with PBS at 600 nm. (FIG. 1A) azido incorporation into polysaccharide was then quantified via fluorescent labeling (FL) with normalization to refractive index (RI). MaxOD and End Of Fermentation time (EOF) are provided in (FIG. 1B) and (FIG. 1C), respectively. Polysaccharide was extracted using EtOH and CaCl2 and analyzed via SEC-RI for (FIG. 1D) polysaccharide titer. n=1-4, error bars=+/−StDev.\nTo identify azido sugars that could incorporate into S. pneumoniae T14 capsule, we grew S. pneumoniae T14 (serotype 14) in the production medium supplemented with various azido sugars (Table 3) supplied at 1 mM. We performed our screen using both production medium supplemented with Glucose (dextrose, 30 g/L) and production medium supplemented with Galactose (30 g/L).\nWe tested the impact of 2AzGlc concentration on S. pneumoniae T14 growth, polysaccharide production, and azido incorporation by growing the bacteria in production media (supplemented with Glucose (dextrose, 30 g/L)) with various concentrations of 2AzGlc (0, 1, 5, 10, 20, 40, and 60 mM).\nTo improve the incorporation of 2AzGlc into S. pneumoniae T14 capsule in production media (supplemented with Glucose (dextrose, 30 g/L)), we performed a 16-vessel DOE designed to test the impact of pH (6.33, 6.66, 7.00, and 7.33) and agitation (100, 200, and 300 rpm) on four response variables (MaxOD, Poly Titer, Poly Size, and FL/RI)."}}, "note": "Where “and” joins values, the source holds several entries; their conditions need not be identical. Equal values may be shown once. Read-outs that look alike come from different tables or passages of the source.", "data": [{"smiles": "[N-]=[N+]=N[C@@H](C=O)[C@@H](O)[C@H](O)[C@H](O)CO", "note": "[2AzGlc, 2-Azido-2-deoxy-D-glucose]", "values": [{"measurement": "increase between lowest and higher FL/RI achieved", "setting": "[1]; 2AzGlc titration 1-60 mM, production media + Glucose (dextrose, 30 g/L)", "value": 10, "unit": "fold"}, {"measurement": "FL/RI", "setting": "[1]; azido feed DOE: Gal 30 g/L, initial 2AzGlc 0 mM, 2AzGlc feed stock 4 mM, pH 7.33, 300 rpm", "value": "101.45 and 103.61"}, {"measurement": "FL/RI", "setting": "[1]; azido feed DOE: Gal 30 g/L, initial 2AzGlc 0 mM, 2AzGlc feed stock 6.5 mM, pH 7.33, 300 rpm", "value": "113.82 and 121.9"}, {"measurement": "FL/RI", "setting": "[1]; azido feed DOE: Gal 30 g/L, initial 2AzGlc 0.1 mM, 2AzGlc feed stock 4 mM, pH 7.33, 300 rpm", "value": "116.16 and 116.31"}, {"measurement": "FL/RI", "setting": "[1]; azido feed DOE: Gal 30 g/L, initial 2AzGlc 0.1 mM, 2AzGlc feed stock 6.5 mM, pH 7.33, 300 rpm", "value": "84.53 and 83.69"}, {"measurement": "FL/RI", "setting": "[1]; azido feed DOE: Gal 40 g/L, initial 2AzGlc 0 mM, 2AzGlc feed stock 4 mM, pH 7.33, 300 rpm", "value": "97.04 and 114.22"}, {"measurement": "FL/RI", "setting": "[1]; azido feed DOE: Gal 40 g/L, initial 2AzGlc 0 mM, 2AzGlc feed stock 6.5 mM, pH 7.33, 300 rpm", "value": "122.7 and 110.09"}, {"measurement": "FL/RI", "setting": "[1]; azido feed DOE: Gal 40 g/L, initial 2AzGlc 0.1 mM, 2AzGlc feed stock 4 mM, pH 7.33, 300 rpm", "value": "125.02 and 122.41"}, {"measurement": "FL/RI", "setting": "[1]; azido feed DOE: Gal 40 g/L, initial 2AzGlc 0.1 mM, 2AzGlc feed stock 6.5 mM, pH 7.33, 300 rpm", "value": "79.3 and 63.19"}, {"measurement": "FL/RI", "setting": "[1]; fed-batch, initial galactose 5.0 g/L, 0.25 mM 2AzGlc, galactose feed rate FR #1", "value": 45}, {"measurement": "FL/RI", "setting": "[1]; fed-batch, initial galactose 5.0 g/L, 0.25 mM 2AzGlc, galactose feed rate FR #2", "value": 18}, {"measurement": "average FL/RI", "setting": "[1]; initial galactose 40 g/L, initial 2AzGlc 0.1 mM, 4.0 mM 2AzGlc feed stock", "value": 123.7}, {"measurement": "FL/RI", "setting": "[1]; production media + 2AzGlc (10 mM), pH 6.33, agitation 100 rpm", "value": "91.9 and 100.7"}, {"measurement": "FL/RI", "setting": "[1]; production media + 2AzGlc (10 mM), pH 6.33, agitation 300 rpm", "value": "98.3 and 97.5"}, {"measurement": "FL/RI", "setting": "[1]; production media + 2AzGlc (10 mM), pH 6.66, agitation 200 rpm", "value": "114.5 and 135.0"}, {"measurement": "FL/RI", "setting": "[1]; production media + 2AzGlc (10 mM), pH 7, agitation 100 rpm", "value": "117.8 and 118.8"}, {"measurement": "FL/RI", "setting": "[1]; production media + 2AzGlc (10 mM), pH 7, agitation 300 rpm", "value": "115.7 and 107.5"}, {"measurement": "FL/RI", "setting": "[1]; production media + 2AzGlc (10 mM), pH 7.33, agitation 100 rpm", "value": "137.4 and 158.3"}, {"measurement": "FL/RI", "setting": "[1]; production media + 2AzGlc (10 mM), pH 7.33, agitation 200 rpm", "value": "140.8 and 125.0"}, {"measurement": "FL/RI", "setting": "[1]; production media + 2AzGlc (10 mM), pH 7.33, agitation 300 rpm", "value": "113.9 and 137.3"}, {"measurement": "FL/RI", "setting": "[1]; production media + Glucose (dextrose, 30 g/L), media pH 7, 2AzGlc 1 mM", "value": 15}, {"measurement": "FL/RI", "setting": "[1]; production media + Glucose (dextrose, 30 g/L), media pH 7, 2AzGlc 5 mM", "value": 61}, {"measurement": "FL/RI", "setting": "[1]; production media + Glucose (dextrose, 30 g/L), media pH 7, 2AzGlc 10 mM", "value": 118}, {"measurement": "FL/RI", "setting": "[1]; production media + Glucose (dextrose, 30 g/L), media pH 7, 2AzGlc 20 mM", "value": 146}, {"measurement": "FL/RI", "setting": "[1]; production media + Glucose (dextrose, 30 g/L), media pH 7.33, 2AzGlc 20 mM", "value": 148}, {"measurement": "FL/RI", "setting": "[1]; production media + Glucose (dextrose, 30 g/L), media pH 7.33, 2AzGlc 40 mM", "value": 157}, {"measurement": "FL/RI", "setting": "[1]; production media + Glucose (dextrose, 30 g/L), media pH 7.33, 2AzGlc 60 mM", "value": 151}, {"measurement": "FL/RI", "setting": "[1]; production medium + Galactose (30 g/L) + 2AzGlc (0.25 mM), pH 6.33, agitation 100 rpm", "value": "51.73 and 50.26"}, {"measurement": "FL/RI", "setting": "[1]; production medium + Galactose (30 g/L) + 2AzGlc (0.25 mM), pH 6.33, agitation 200 rpm", "value": 48.41}, {"measurement": "FL/RI", "setting": "[1]; production medium + Galactose (30 g/L) + 2AzGlc (0.25 mM), pH 6.33, agitation 300 rpm", "value": "45.24 and 44.39"}, {"measurement": "FL/RI", "setting": "[1]; production medium + Galactose (30 g/L) + 2AzGlc (0.25 mM), pH 6.66, agitation 100 rpm", "value": 78.29}, {"measurement": "FL/RI", "setting": "[1]; production medium + Galactose (30 g/L) + 2AzGlc (0.25 mM), pH 6.66, agitation 300 rpm", "value": 77.94}, {"measurement": "FL/RI", "setting": "[1]; production medium + Galactose (30 g/L) + 2AzGlc (0.25 mM), pH 7, agitation 200 rpm", "value": 97.25}, {"measurement": "FL/RI", "setting": "[1]; production medium + Galactose (30 g/L) + 2AzGlc (0.25 mM), pH 7.33, agitation 100 rpm", "value": "101.26 and 88.76"}, {"measurement": "FL/RI", "setting": "[1]; production medium + Galactose (30 g/L) + 2AzGlc (0.25 mM), pH 7.33, agitation 300 rpm", "value": "110 and 109.76 and 110.12"}, {"measurement": "FL/RI", "setting": "[1]; screen, azido sugar 1 mM, production medium + Glucose (dextrose, 30 g/L)", "value": "detectable"}, {"measurement": "MaxOD600 nm", "setting": "[2]; pH 6.33, agitation 100 rpm", "value": "12.1 and 13.6"}, {"measurement": "MaxOD600 nm", "setting": "[2]; pH 6.33, agitation 300 rpm", "value": "10.8 and 10.7"}, {"measurement": "MaxOD600 nm", "setting": "[2]; pH 7, agitation 100 rpm", "value": "8.8 and 7.8"}, {"measurement": "MaxOD600 nm", "setting": "[2]; pH 7.33, agitation 100 rpm", "value": "8.9 and 9.6"}, {"measurement": "MaxOD600 nm", "setting": "[2]; pH 7.33, agitation 200 rpm", "value": "8.5 and 8.3"}]}]}
